Columns and labels:
[1] = tested on: Neonatal foreskin fibroblasts (NFF); assay: Normal cell toxicity, MTT proliferation assay, NFF; format: cell-based, human
Description: Neonatal foreskin fibroblasts (NFF) were a gift from Dr. Peter Parsons (Queensland Institute of Medical Research). RK-13 (rabbit kidney) cells were obtained from Miller Whalley (Macquarie University). Both cell types were cultured in RPMI supplemented with 10% FCS (CSL, Australia), penicillin (100 U/ml), streptomycin ([…]), L-glutamine (2 mM) and sodium bicarbonate (1.2 g/L), and cultured at 37° C. in a humidified atmosphere of 5% CO2.
(§1) IC50 values were determined for each cell line. Cells were seeded in 96-well plates at an appropriate cell density as determined from growth kinetics analysis. NFFs were cultured for 5 days and RK-13s for 24 hrs in the absence and presence of the test compounds. Cell proliferation was assessed after the addition of 20 μl of 3-4,5 dimethylthiazol-2,5-diphenyl tetrazolium bromide (MTT, 2.5 mg/ml in PBS, Sigma) for 3-4 hrs at 37° C. according to manufacturer's instructions. IC50 values were calculated from semi-log plots of % of control proliferation on the y-axis against log dose on the x-axis.
Duplicate cytotoxicity assays against NFF cells were conducted with dehydroequol (DHE), 4,9-dihydroxy-14,15-dimethoxy-12a-(3′,4′-dimethoxyphenyl)-3,10-dimethyl-2,11-dioxa-(1H,12H)-6b,6c,12a,16b-tetrahydronaphtho[1,2-g]chrysene (2) from Example 6.1 and cisplatin.

[2] = tested on: ovarian cancer cell line CP70; assay: In vitro cytotoxicity, MTT proliferation assay, CP70; format: cell-based, human; details: Homo sapiens
Description: (§2) The human pancreatic cancer cell line, HPAC (CRL-2119) was routinely cultured in 1:1 mixture DMEM (Sigma) plus Ham's F12 (Sigma) medium containing HEPES (15 mM), insulin (0.002 mg/ml), transferrin (0.005 mg/ml), hydrocortisone, (40 ng/ml), epidermal growth factor (10 ng/ml). The ovarian cancer cell line CP70 was obtained as a gift from Dr. Gil Mor (Yale University) and cultured in a 1:1 mixture DMEM plus Ham's F12 medium, and SKOV-3 was purchased from ATCC and cultured in McCoy's 5a medium. The breast cancer cell line MDA-MB-468 cultured in Leibovitz's L-15 medium.
(§3) All cultures were supplemented with 10% FCS(CSL, Australia), penicillin (100 U/ml), streptomycin ([…]), L-glutamine (2 mM) and sodium bicarbonate (1.2 g/L), and cultured at 37° C. in a humidified atmosphere of 5% CO2. All remaining cell lines were purchased from ATCC (Maryland, USA) except where noted.
as §1

[3] = tested on: SKOV-3 (Ovarian); assay: In vitro cytotoxicity, MTT proliferation assay, SKOV-3; format: cell-based, human; details: Homo sapiens, SK-OV-3; Ovarian SKOV-3
Description: as §2, §3, §1

[4] = tested on: LNCaP (Prostate); assay: In vitro cytotoxicity, MTT proliferation assay, LNCaP; format: cell-based, human; details: Homo sapiens
Description: as §2, §3, §1

[5] = tested on: breast cancer cell line MDA-MB-468; assay: In vitro cytotoxicity, MTT proliferation assay, MDA-MB-468; format: cell-based, human; details: Homo sapiens; Breast MDA-MB-468
Description: as §2, §3, §1

[6] = tested on: RPMI-8226 (Leukemic); assay: In vitro cytotoxicity, MTT proliferation assay, RPMI-8226; format: cell-based; details: Homo sapiens; Leukemic RPMI-8226
Description: as §2, §3
as §1, with “NFFs were cultured for 5 days and RK-13s for 24 hrs in the absence and presence of the test compounds.” left out

[7] = tested on: HT-29 (Colorectal); assay: In vitro cytotoxicity, MTT proliferation assay, HT-29; format: cell-based, human; details: Homo sapiens; Colorectal HT-29
Description: as §2, §3, §1

[8] = tested on: HCT-15 (Colorectal); assay: In vitro cytotoxicity, MTT proliferation assay, HCT-15; format: cell-based, human; details: Homo sapiens; Colorectal HCT-15
Description: as §2, §3, §1

[9] = tested on: PGE2; assay: PGE2 in murine macrophages (RAW 264.7) stimulated with LPS; format: cell-based, mouse; details: RAW 264.7, LPS 50 ng/ml, 16 hrs, dose responsive
Description: The mouse macrophage cell line RAW 264.7 was cultured in DMEM supplemented with FCS, 2 mM glutamine and 50 U/ml penicillin/streptomycin. Subconfluent cells were detached from the flask by gentle scraping and 24-well plates seeded at 5×10^5 cells per well and allowed to adhere for 1 hr. Cells were then treated either test compounds (in 0.025% DMSO) or vehicle alone, and incubated for 1 hr. LPS 50 ng/ml (LPS —Sigma-Aldrich) was then added. After incubation for 16 hrs, culture media was collected and stored at −80° C. for ecosanoid and cytokine measurements using enzyme immunometric assays (PGE2 and TXB2—Cayman Chemical and TNFα—Becton Dickinson).

[10] = tested on: thoracic aorta; assay: Aortic ring contractility induced by noradrenaline; parameters: species or system Male Sprague-Dawley rats; details: in presence of Cpd. 2 1 μg/ml; 1.94±0.35 vs. 2.09±0.23, p>0.05, no effect; n=6 rings
Description: Male Sprague-Dawley rats (250±50 g) were euthanased with 80% CO2 and 20% O2. The thoracic aorta was excised and quickly mounted in organ-baths as described (Chin-Dusting et al, 2001). Full concentration-contractile curves were obtained to noradrenaline ([…]) in the absence and presence of Cpd. 2 (1 μg/ml). Experiments were repeated in n=6 different rings from 6 different animals.

[11] = tested on: unstimulated splenocytes; assay: Murine splenocytes, 24 hour pre-incubation with compound then mitogenic stimulation; format: cell-based, Male Skh-1 (hairless) mice; details: 10 μM
Description: Male Skh-1 (hairless) mice, six weeks old were killed by cervical dislocation. Single cell suspensions were made from their spleens and erythrocytes were lysed in buffer (0.14M NH4Cl, 17 mM Tris, pH 7.2). The remaining splenocytes were cultured in RPMI-1640 (Gibco) supplemented with 10% (v:v) FBS, 200 mM L-glutamine, penicillin/streptomycin and […] 2-mercaptoethanol. Splenocytes were added to triplicate wells containing either concanavalin A (ConA, Sigma-Aldrich—0.4 μg/well), lipopolysaccharide (LPS, Sigma-Aldrich—1 μg/well) or no mitogen, as well as 10 μM of either Compound 1 or Compound 2 in DMSO, or DMSO alone. Samples were analysed after a 3 day incubation at 37° C. in 5% CO2 in air. To assess cell numbers, methylthiazoletetrazolium (MTT) was added to each well, incubated for a further 4 hrs and then colour developed with 0.04N HCl in isopropanol (Mosmann 1983). Plates were read at 570 nm and 630 nm. The compounds were examined several times using different mice. For each assay, the effect of test compound was compared with that of vehicle control, and the results compared using a student's t test (Prism). Statistically significant difference was determined to have occurred when p<0.05.
Another assay examined the effect pre-incubating unstimulated splenocytes with test compounds at 10 μM for 24 hours, removing the compounds and then assessing their ability to respond to mitogenic stimulation as described for the previous assay. Cell numbers were assessed after the 24 hr pre-incubation using MTT, and equal numbers of cells/well plated into 96 well plates as usual.

Question: How did the IC50 ([1]; Homo sapiens, 120 h, NFF fibroblast, cultured 5 days, MTT) turn out when `COc1ccc(C23COc4c(ccc(O)c4C)C2C2c4ccc(O)c(C)c4OCC2c2cc(OC)c(OC)cc23)cc1OC` (centres unmarked) [Cpd. 2, 4,9-Dihydroxy-14,15-dimethoxy-12a-(3′,4′-dimethoxyphenyl)-3,10-dimethyl-2,11-dioxa-(1H,12H)-6b,6c,12a,16b-tetrahydronaphtho[1,2-g]chrysene] was run?
Answer: The IC50 was 23.6 ± 6.6 µM.

Question: What about the “toxicity to normal cells relative to cisplatin and dehydroequol” value ([1]; normal cells (NFF, rabbit kidney)) of the same molecule?
Answer: Its value is “less toxic to normal cells than cisplatin, but more toxic than dehydroequol”.

Question: And the IC50 [2]?
Answer: Its IC50 is 8.23 ± 3.73 µM.

Question: And the IC50 [3]?
Answer: Its IC50 is 16.7 ± 10 µM.

Question: And the IC50 [4]?
Answer: The IC50 was 12 ± 4.3 µM.

Question: And the IC50 [5]?
Answer: Its IC50 is 8.59 ± 0.35 µM.

Question: What about the IC50 [6] of the same molecule?
Answer: The IC50 was 15.2 µM.

Question: What about the IC50 [7] of the same molecule?
Answer: Its IC50 is 11.5 ± 6 µM.

Question: And the IC50 [8]?
Answer: Its IC50 is 54.7 ± 28 µM.

Question: And the “effect on PGE2” value [9]?
Answer: Its value is “induced”.

Question: And the “maximal contractile response to noradrenaline” value [10]?
Answer: Its value is 2.09±0.23.

Question: What about the “Splenocyte viability following three days' culture in the absence of mitogen” value [11] of the same molecule?
Answer: The value was “significantly reduced”.

Question: What about the “reduction in cell numbers compared with vehicle alone” value [11] of the same molecule?
Answer: Its value is 55%.

Question: What about the “proliferative response to ConA after pre-incubation” value ([11]; compound removed) of the same molecule?
Answer: Its value is “significantly less”.

— patent US7700644B2, “Isoflavonoid dimers” (Novogen Research Pty Ltd, priority 2005, dated 2010)
